From publication PMC9525273 (Nature Communications, 2022) come the findings set out here.

Values joined by “and” are separate entries in the source; they are usually repeats but may differ in a detail not shown here. Equal values may be shown once. Read-outs that look alike come from different tables or passages of the source.

One assay deals with NF54^G358S-3 parasites. The assay can be described thus: P. falciparum proliferation assay (72 h, flow cytometry, SYBR Green I/MitoTracker). The class given is cell-based. To be noted: Plasmodium falciparum, NF54G358S-3, mean ± SEM, n = 3. On the procedure: Two types of parasite proliferation assays were employed in this study, with both yielding highly consistent results. For the NF54-based lines and Dd2-B2-PfATP4^G358S and its parent, assays were initiated with cultures containing predominantly ring-stage parasites with a parasitaemia of 0.3% and a haematocrit of 1%. All assays using NF54 were performed in culture media containing 10% O + human serum. The duration of the assays was 72 h and the concentration of DMSO was <0.5% (v/v). Serial dilutions of the test compounds were performed using a Tecan D300e digital dispenser, with parasite cultures added manually. Parasite survival was assessed by flow cytometry on an Intellicyt iQue3 (Essen Bioscience), with 1× SYBR Green I (Invitrogen) and 200 nM MitoTracker Deep Red FM (Invitrogen) used to stain the nucleus and the mitochondria in live parasites, respectively. The gating strategy used to quantify parasite survival, performed using FlowJo version 10 (FlowJo LLC.), is illustrated in Supplementary Fig. 9. IC50 and IC90 values were calculated by linear interpolation of the dose-response data.
In general terms: Flow cytometry measures light scatter and fluorescence of single cells or particles in a stream.

Assay [1] concerns the target T1, TgATP4^WT (membranes from T. gondii tachyzoites) (Toxoplasma gondii, UniProt B9QMJ0).
T1 sequence (B9QMJ0 1-1338): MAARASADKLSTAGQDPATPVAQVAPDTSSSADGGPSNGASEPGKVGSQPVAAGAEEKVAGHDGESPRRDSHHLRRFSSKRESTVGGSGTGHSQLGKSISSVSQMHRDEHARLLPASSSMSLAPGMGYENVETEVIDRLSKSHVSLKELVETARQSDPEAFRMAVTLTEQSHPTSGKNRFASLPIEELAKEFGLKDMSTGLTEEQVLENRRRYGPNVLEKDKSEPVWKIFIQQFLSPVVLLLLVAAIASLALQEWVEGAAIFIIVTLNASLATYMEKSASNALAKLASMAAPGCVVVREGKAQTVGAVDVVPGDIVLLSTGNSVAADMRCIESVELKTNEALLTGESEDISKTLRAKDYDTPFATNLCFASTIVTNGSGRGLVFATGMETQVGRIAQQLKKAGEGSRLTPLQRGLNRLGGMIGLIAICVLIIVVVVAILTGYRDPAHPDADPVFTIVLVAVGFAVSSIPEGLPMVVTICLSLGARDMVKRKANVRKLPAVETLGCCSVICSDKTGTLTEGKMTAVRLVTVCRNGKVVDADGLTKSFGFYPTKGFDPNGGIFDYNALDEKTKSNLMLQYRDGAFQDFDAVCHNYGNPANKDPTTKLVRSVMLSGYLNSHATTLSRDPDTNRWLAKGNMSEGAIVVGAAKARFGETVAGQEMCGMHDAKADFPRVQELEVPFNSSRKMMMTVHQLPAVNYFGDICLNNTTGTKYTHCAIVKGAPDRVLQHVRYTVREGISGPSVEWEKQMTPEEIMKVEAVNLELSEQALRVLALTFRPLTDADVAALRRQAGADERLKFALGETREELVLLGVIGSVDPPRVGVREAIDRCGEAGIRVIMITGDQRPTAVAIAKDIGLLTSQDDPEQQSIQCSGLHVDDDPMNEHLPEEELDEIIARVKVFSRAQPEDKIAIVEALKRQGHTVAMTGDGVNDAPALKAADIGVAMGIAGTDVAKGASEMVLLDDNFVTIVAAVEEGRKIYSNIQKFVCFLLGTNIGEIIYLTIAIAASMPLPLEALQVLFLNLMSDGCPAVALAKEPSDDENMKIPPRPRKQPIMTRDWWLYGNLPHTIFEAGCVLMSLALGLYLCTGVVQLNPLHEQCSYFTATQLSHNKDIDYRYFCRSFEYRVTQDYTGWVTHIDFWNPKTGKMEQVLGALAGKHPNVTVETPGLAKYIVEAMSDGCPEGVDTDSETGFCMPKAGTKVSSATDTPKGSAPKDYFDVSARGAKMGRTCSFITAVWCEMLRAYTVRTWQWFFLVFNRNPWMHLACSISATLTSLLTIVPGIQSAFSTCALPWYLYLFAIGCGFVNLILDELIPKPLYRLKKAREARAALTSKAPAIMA
The assay can be described thus: Membrane ATPase assay, ATP4-associated (Na+-dependent) ATPase activity. Details: IC50 for inhibition of ATP4-associated ATPase activity, MEAN: unit: nM. Format: biochemical. The procedure:
Membranes from isolated P. falciparum or extracellular T. gondii parasites were prepared by lysing parasites in ice-cold deionized water containing a 1:500 dilution of Protease Inhibitor Cocktail Set III (Merck Millipore), then washing the membrane preparation three times in ice-cold deionized water (with protease inhibitors present for the first two washes)[15]. Protein concentrations in the membrane preparations were measured using a Bradford assay. The PiColorLock Gold Phosphate Detection System (Innova Biosciences) was used to measure the production of Pi from hydrolysis of ATP[15]. Membrane preparations were diluted in either a high Na^+ solution (yielding final conditions in the reactions of 150 mM NaCl, 20 mM KCl, 2 mM MgCl2, 50 mM Tris, pH 7.2) or a Na^+-free solution (yielding final conditions of 150 mM choline chloride, 20 mM KCl, 2 mM MgCl2, 50 mM Tris, pH 7.2) to achieve a total protein concentration of 50 μg/mL. […] The reactions were performed at 37 °C, and were initiated by the addition of 1 mM ATP (Na2ATP۰3H2O; MP Biomedicals) and terminated 10 min later by adding 100 μL of reaction mixture (in duplicate) to 25 μL “Gold mix” in a 96-well plate. “Stabiliser” was added 3 min later, and the plates incubated at room temperature in the dark for 60 min before measuring absorbance at 635 nm. Background values (averaged from wells containing all components, but to which ATP was not added until after the membrane was exposed to Gold mix) were subtracted from the data. For each treatment, the ATPase activity associated with the (Na^+-dependent) PfATP4 and TgATP4 proteins was calculated by subtracting data obtained in the low Na^+ condition (containing only the 2 mM Na^+ introduced on addition of 1 mM Na2ATP) from that obtained in the high Na^+ condition.

One may read the IC50 as the concentration that gives 50% inhibition.

On to `C[C@H]1Cc2c([nH]c3cc(Cl)c(F)cc23)[C@@]2(N1)C(=O)Nc1ccc(Cl)cc12` [Cipargamin], for which it took 2.2 ± 0.7 µM to reach half-maximal inhibition in the assay on NF54^G358S-3 parasites (IC50). Moreover, the “IC50 for inhibition of ATP4-associated ATPase activity, MEAN” value in assay [1] (WT T. gondii membranes, MEAN, source data of Table 1 (nM there)) is given as 8.39. The remaining activity at 60 pM in assay [1] (WT T. gondii, Cipargamin 0.06 nM, MEAN, read-out: TgATP4-associated ATPase activity (% of control)) is 98.4%; in assay [1] (WT T. gondii, Cipargamin 0.06 nM, single experiments, read-out: TgATP4-associated ATPase activity (% of control)), 98.9%. For the same compound, the “TgATP4-associated ATPase activity (% of control)” value in assay [1] (WT T. gondii, Cipargamin 0.06 nM, single experiments) is 98.0 % of control; in assay [1] (WT T. gondii, Cipargamin 0.12 nM, single experiments) it was 100.0 % of control and 99.7 % of control and 103.4 % of control; in assay [1] (WT T. gondii, Cipargamin 0.24 nM, single experiments) it was 81.4 % of control and 81.6 % of control and 107.2 % of control and 96.9 % of control. Besides, the remaining activity at 0.00012 µM in assay [1] (WT T. gondii, Cipargamin 0.12 nM, MEAN, read-out: TgATP4-associated ATPase activity (% of control)) amounted to 101%; in assay [1] (WT T. gondii, Cipargamin 0.12 nM, single experiments, read-out: TgATP4-associated ATPase activity (% of control)), 100%. Besides, the remaining activity at 0.00024 µM in assay [1] (WT T. gondii, Cipargamin 0.24 nM, MEAN, read-out: TgATP4-associated ATPase activity (% of control)) turned out to be 91.8%. Besides, the remaining activity at 0.00049 µM in assay [1] (WT T. gondii, Cipargamin 0.49 nM, MEAN, read-out: TgATP4-associated ATPase activity (% of control)) is 76.3%. Moreover, the remaining activity at 0.00098 µM in assay [1] (WT T. gondii, Cipargamin 0.98 nM, MEAN, read-out: TgATP4-associated ATPase activity (% of control)) stood at 66.1%. In assay [1] (WT T. gondii, Cipargamin 1.95 nM, MEAN, read-out: TgATP4-associated ATPase activity (% of control)), the remaining activity at 0.00195 µM turned out to be 47.3%. The remaining activity at 0.0039 µM in assay [1] (WT T. gondii, [cipargamin] 3.9 nM, MEAN, read-out: TgATP4-associated ATPase activity (% of control)) was 34.5%. Also, the remaining activity at 0.0078 µM in assay [1] (WT T. gondii, [cipargamin] 7.8 nM, MEAN, read-out: TgATP4-associated ATPase activity (% of control)) was determined as 38.1%. In addition, in assay [1] (WT T. gondii, [cipargamin] 15.6 nM, MEAN, read-out: TgATP4-associated ATPase activity (% of control)), the remaining activity at 0.0156 µM stood at 21.9%. Besides, in assay [1] (WT T. gondii, [cipargamin] 31.3 nM, MEAN, read-out: TgATP4-associated ATPase activity (% of control)), the remaining activity at 0.0313 µM is 13.1%. Also, in assay [1] (WT T. gondii, [cipargamin] 62.5 nM, MEAN, read-out: TgATP4-associated ATPase activity (% of control)), the remaining activity at 0.0625 µM came out at 6.8%. The “IC50 for ATP4-associated ATPase activity” value in assay [1] (membranes from WT T. gondii (TgATP4WT), mean ± SEM) was 8.4 ± 5.8 (4) nM.
